Data on eight compounds can be found in patent US9662308B2, “Orally bioavailable pentamidine prodrugs for the treatment of diseases” (Dritte Patentportfolio Beteiligungsgesellschaft mbH & Co. KG, priority 2008, dated 2017).

Structures are written as SMILES. In brackets after ≈: the same amount, converted by molar mass. Like-named read-outs stand apart in the source and are kept apart here. Where only a bound is given, the exact number is not on record here.

Data set [1] can be described thus: Solubility in 50 mM phosphate buffer (HPLC). Particulars: for solubility at 20 min: 50 mM phosphate buffer, thermodynamic from solid. Here is the method: […] Subsequently, the undissolved part was removed by centrifugation (12,000 rpm) and the samples were immediately measured by HPLC. The evaluation of the solubility ensued via a calibration of N,N′-bis(succinyloxy)pentamidine (1) in DMSO.
Solubilities were determined analogously to the method described for compound 1.

The procedure of data set [2]:
For the stability analyses, a 0.1 mM solution of N,N′-bis(succinyloxy)pentamidine (1) was prepared in a 50 mM potassium phosphate buffer/DMSO (90/10, vol/vol). The analysis took place at pH values of 2.0, 7.4 and 9.0. One sample was taken and immediately analyzed by HPLC every 15 min over a period of 150 min.
(§1) The stability analyses were evaluated by means of the following HPLC method: […]

The procedure of data set [3]:
Further analyses were conducted with human and murine plasma. 900 μl of the plasma was mixed with 100 μl of a 2 mM solution of N,N′-bis(succinyloxy)pentamidine (1). The final concentration of N,N′-bis(succinyloxy)pentamidine (1) was thus 0.2 mM. The samples were incubated at 37° C. in a shaking water bath and samples were taken after 0, 15, 30, 45, 60, 75, 90, 105 and 120 min. For this purpose, 100 μl was drawn in each case and mixed with 100 μl acetonitrile. The samples were shaken, centrifuged for 5 min and the supernatant was measured by HPLC.
as §1
This is another data set of the same source.

Data set [4] deals with 9000×g supernatants, microsomes and mitochondria of human liver and kidney tissues. The data set is classed as in vitro ADME. The following applies: pH 6.3. Here is the method:
The activation of the prodrug was determined in vitro by means of subcellular enzyme preparations. 9000×g of supernatants, microsomes and mitochondria of human and porcine liver and kidney tissues were used as the enzyme preparations. The incubation batches were composed of […] prodrug, 1 mM NADH, 1 U esterase and 0.3 mg enzyme preparation dissolved in 150 μ100 mM phosphate buffer, pH 6.3. The incubation took place over 20 min in a shaking water bath at 37° C. The incubation was terminated by adding 150 μl of acetonitrile. The samples were subsequently shaken for 10 min and the precipitated protein was removed by centrifuging at 10,000 RPM for 15 min. The supernatant was measured by means of HPLC.

How the values of data set [5] were obtained: Samples were stored at room temperature and 70° C. over a defined period and examined for analyzing the prodrug (1) storage stability. The storage period was 6 months for the room temperature samples, 7 days for the 70° C. samples. The prodrug (1) content was determined by means of HPLC. For this purpose, the samples were dissolved in a mixture of equal parts of methanol and phosphate buffer (20 mM, pH 7.4) and immediately measured. The HPLC method corresponds to the method described under “Characterization of the prodrugs”.
This is another data set of the same source.

The conditions of data set [6]: rat, in vivo.
For a further data set, the system named is trypanosomes. The following applies: cited from earlier work.
For another data set, the system named is leishmania. The following applies: cited from earlier work.
In the next data set the test system is plasmodia. Particulars: cited from earlier work.

With `N/C(=N\O)c1ccc(OCCCCCOc2ccc(/C(N)=N/O)cc2)cc1` [Pentamidine diamidoxime (3), Pentamidine diamidoxime], the solubility (commonly how much of the substance goes into solution per volume) at 20 min in data set [1] (pH 2, aqueous buffer) is 4210 ± 231 µM (≈ 1570 µg/mL); in [1] (pH 7.4, aqueous buffer) it was 12 ± 1 µM (≈ 4.47 µg/mL); in [1] (pH 9, aqueous buffer), 4 ± 1 µM (≈ 1.49 µg/mL).

For the compound `N=C(NOC(=O)CCC(=O)O)c1ccc(OCCCCCOc2ccc(C(=N)NOC(=O)CCC(=O)O)cc2)cc1` [N,N′-bis(succinyloxy)pentamidine (1), 4,4′-Pentamethylendioxy-bis-[N-(carboxypropionyloxy)]benzamidine], the Solubility (usually the dissolved amount per volume that the medium holds) is 7500 µM (≈ 4290 µg/mL) in data set [1], “hydrolysis” in data set [1] (pH 2), 7500 ± 340 µM (≈ 4290 µg/mL) in data set [1] (pH 7.4) and 10780 ± 70 µM (≈ 6170 µg/mL) in data set [1] (pH 9). Further, in data set [1] (pH 2), the “Solubility in acidic medium” value was “in the mM range”. In addition, the “Stability in the neutral and slightly alkaline pH range” value in [2] is “stable”. In data set [2] (pH 2.0), the “Hydrolysis in aqueous medium” value is listed as “rapid hydrolysis”. The “Hydrolysis into monosuccinyl pentamidine and pentamidine diamidoxime (3)” value in [2] (pH 7.4) and in data set [2] (pH 9.0) was “only to a minor extent” throughout. The Hydrolysis in plasma result in data set [3] is on record as “markedly”. Besides, the “Pentamidine formation (conversion rate)” value in data set [4] amounted to 0.04 ± 0.01 nmol/min/mg. Further, the “content pentamidine diamidoxime(3)” value in data set [5] (70° C., 0 days) came out at 0.4 ± 0.01% area %; in data set [5] (70° C., 1 day), 0.9 ± 0.01% area %; in data set [5] (70° C., 2 days), 1.0 ± 0.01% area %; in data set [5] (70° C., 4 days) it was 1.1 ± 0.01% area %; in [5] (70° C., 7 days), 1.5 ± 0.13% area %; in data set [5] (room temperature, 0 months), 0.4 ± 0.01% area %. The “content pentamidine diamidoxime(3)” value was found to be 0.5 ± 0.01% area % in data set [5] (room temperature, 0.5 months); 0.2 ± 0.02% area % in data set [5] (room temperature, 1 month); 0.6 ± 0.16% area % in data set [5] (room temperature, 2 months); 0.6 ± 0.01% area % in [5] (room temperature, 3 months); 0.5 ± 0.01% area % in data set [5] (room temperature, 6 months). Further, the “content prodrug (1)” value is given as 98.4 area % in data set [5] (70° C., 0 days); 98.0 area % in data set [5] (70° C., 1 day); 97.6 area % in [5] (70° C., 2 days); 97.9 area % in data set [5] (70° C., 4 days); 97.4 area % in [5] (70° C., 7 days); 98.4 area % in data set [5] (room temperature, 0 months). Besides, the “content prodrug (1)” value in [5] (room temperature, 0.5 months) was 98.4 area %; in data set [5] (room temperature, 1 month), 98.6 area %; in [5] (room temperature, 2 months), 97.5 area %; in data set [5] (room temperature, 3 months), 97.5 area %; in data set [5] (room temperature, 6 months) it was 97.8 area %. Further, the content succinyloxypentamidin amounted to 1.0 ± 0.02% area % in data set [5] (70° C., 0 days); 1.1 ± 0.03% area % in data set [5] (70° C., 1 day); 1.3 ± 0.20% area % in data set [5] (70° C., 2 days); 0.9 ± 0.01% area % in data set [5] (70° C., 4 days); 1.1 ± 0.26% area % in [5] (70° C., 7 days). The content succinyloxypentamidine in data set [5] (room temperature, 0 months) is 1.0 ± 0.02% area %; in data set [5] (room temperature, 0.5 months) it was 1.0 ± 0.03% area %; in data set [5] (room temperature, 1 month) it was 1.2 ± 0.16% area %; in data set [5] (room temperature, 2 months), 1.8 ± 0.02% area %; in [5] (room temperature, 3 months), 1.8 ± 0.04% area %; in [5] (room temperature, 6 months), 1.5 ± 0.19% area %. Further, the Relative oral bioavailability result in [6] is on record as “up to 98%”.

For the compound `CC(C)[C@H](N)C(=O)O/N=C(\N)c1ccc(OCCCCCOc2ccc(/C(N)=N/OC(=O)[C@@H](N)C(C)C)cc2)cc1` [N,N′-bis(valoxy)pentamidine], the Solubility is over 35000 µM in [1] (pH 2.0), 157 ± 19 µM (≈ 89.6 µg/mL) in data set [1] (pH 7.4) and 84 ± 18 µM (≈ 47.9 µg/mL) in data set [1] (pH 9.0).

As for `NC(=NO)c1ccc(OCCCCCOc2ccc(C(N)=NO)cc2)cc1` [N,N′-bis(dihydroxy)pentamidine], the Solubility was over 35000 µM in data set [1] (pH 2.0), 95 ± 8 µM (≈ 35.4 µg/mL) in data set [1] (pH 7.4) and 21 ± 3 µM (≈ 7.82 µg/mL) in data set [1] (pH 9.0).

As to `CON=C(N)c1ccc(OCCCCCOc2ccc(C(N)=NOC)cc2)cc1` [N,N′-bis(methoxy)pentamidine], the Solubility in data set [1] (pH 2.0) stood at 1304 ± 28 µM (≈ 522 µg/mL); in data set [1] (pH 7.4) it was 8 ± 1 µM (≈ 3.2 µg/mL); in data set [1] (pH 9.0), 10 ± 2 µM (≈ 4 µg/mL).

Regarding `N=C(N)c1ccc(OCCCCCOc2ccc(C(N)=NO)cc2)cc1` [Pentamidine monoamidoxime], the Solubility was 22285 ± 1244 µM (≈ 7940 µg/mL) in [1] (pH 2.0), 1370 ± 291 µM (≈ 488 µg/mL) in [1] (pH 7.4) and 1257 ± 40 µM (≈ 448 µg/mL) in [1] (pH 9.0).

`CC(=O)ON=C(N)c1ccc(OCCCCCOc2ccc(C(N)=NOC(C)=O)cc2)cc1` [N,N′-bis(acetoxy)pentamidine]: the values for the Solubility in [1] (pH 2.0), in [1] (pH 7.4) and in data set [1] (pH 9.0) were 14 ± 8 µM (≈ 6.39 µg/mL), 2 ± 1 µM (≈ 0.913 µg/mL) and 3 ± 2 µM (≈ 1.37 µg/mL), respectively.

Regarding `N=C(N)c1ccc(OCCCCCOc2ccc(C(=N)N)cc2)cc1` [Pentamidine], the IC50 (commonly the concentration that gives 50% inhibition) was 0.8 to 3.2 nM in the data set with trypanosomes, 820 to 2590 nM in the data set with leishmania and 35 to 129 nM in the data set with plasmodia.
